Test system: subjects with moderately to severely active RA who have an inadequate response to methotrexate (MTX)
Experiment: Study 1 (add-on to MTX) - ACR responses (ACR20/50/70)
Type: in vivo, human
Source text: The terms “ACR20”, “ACR50” and “ACR70” as used herein are scores which indicate how much a patient's rheumatoid arthritis has improved according to criteria set out by the American College of Rheumatology (ACR). The ACR score represents a percentage. An ACR20 score means that a person's RA has improved by 20%, an ACR50 score means it has improved by 50%, and an ACR70 score means it has improved by 70%. Specifically, to qualify for an ACR20 score, a person with RA must have at least 20% fewer tender joints and at least 20% fewer swollen joints. In addition the patient must show a 20% improvement in at least three of the following five areas: the person's overall (global) assessment of his or her own RA, the physician's global assessment of the person's RA, the person's assessment of his or her own pain, the person's assessment of his or her own physical functioning, and the results of an erythrocyte sedimentation rate or C-reactive protein (CRP) blood test (both of which test for inflammation). ACR50 and ACR70 scores use the same criteria but require 50% and 70% improvement, respectively, (Felson et al., 1993). In the data presented herein the CRP blood test is used.
Double-blind, placebo-controlled add on study in subjects with moderately to severely active RA who have an inadequate response to methotrexate (MTX) (oral or parenteral).
595 subjects randomized to one of 6 dose regimens of Compound 1 (dosed as [Compound 1:HCl:3H2O]) (3 dose levels administered either once or twice daily) or placebo on top of each subject's stable dose of MTX.
Compound 1 (dosed as [Compound 1:HCl:3H2O]) is dosed for twelve weeks once daily (q.d.) (50 mg, 100 mg or 200 mg) or twice daily (b.i.d.) (25 mg, 50 mg or 100 mg); or placebo.
At Week 12, the subjects on placebo who have not achieved 20% improvement in swollen joint count (SJC66) and tender joint count (TJC68) are re-randomized automatically to receive Compound 1 (dosed as a [Compound 1:HCl:3H2O]) either at 100 mg q.d. or 50 mg b.i.d. doses in a blinded fashion; subjects on 50 mg q.d. who have not achieved 20% improvement in SJC66 and TJC68 will be assigned to 100 mg q.d. and subjects on 25 mg b.i.d. that have not achieved a 20% improvement in SJC66 and TJC68 will be assigned to 50 mg b.i.d. Subjects who switch treatment at week 12 are handled as if they discontinued at week 12 for the purpose of statistical analysis, whereas subjects in the other groups will maintain their randomized treatment until Week 24.
The American College of Rheumatology (ACR) composite score, which evaluates clinical improvement relative to an initial assessment, is a commonly accepted efficacy end point for clinical trials in patients with rheumatoid arthritis. The ACR score correspond to a percentage improvement in pre-set parameters, and therefore measures the evolution of the disease in a patient. For example, ACR20 denotes at least 20% improvement in tender and swollen joint counts and in three of the following end points: global assessment by the patient, global assessment by the doctor, C reactive protein (CRP), patient's pain Visual Analogue Scale and Health Assessment Questionnaire Score. The number of swollen joints, ESR and CRP correlate with radiographic progression of joint damage, whereas tender joint counts, as well as global assessments by doctors and patients, and patients' reports of pain, are sensitive to change in clinical outcomes. Physical function, as assessed by the Health Assessment Questionnaire Score, is a potent predictor of the risk of disability in rheumatoid arthritis (Felson and American College of Rheumatology Committee to Reevaluate Improvement Criteria, 2007; Felson et al., 1993).
In particular, the list of parameters used to assess ACR score can be found in the Table XCVI below and the results of the ACR responses at week 12 via either NRI or LOCF are shown in the tables below. The Hommel-corrected p-value for the pairwise comparisons of each group with placebo is shown. […]

[1] = 2 × 50 mg b.i.d., week 12, 12 weeks results
[2] = 2 × 50 mg b.i.d., week 12, 24 weeks results
[3] = 2 × 50 mg b.i.d., week 16, 24 weeks results
[4] = 2 × 50 mg b.i.d., week 20, 24 weeks results
[5] = 2 × 50 mg b.i.d., week 24, 24 weeks results
[6] = 2 × 50 mg b.i.d., at week 1, 12 weeks results
[7] = 2 × 50 mg b.i.d., at week 1, 24 weeks results
[8] = 2 × 100 mg b.i.d., week 2, 12 weeks results
[9] = 2 × 100 mg b.i.d., week 2, 24 weeks results
[10] = 2 × 100 mg b.i.d., week 4, 12 weeks results
[11] = 2 × 100 mg b.i.d., week 4, 24 weeks results
[12] = 2 × 100 mg b.i.d., week 8, 12 weeks results
[13] = 2 × 100 mg b.i.d., week 8, 24 weeks results
[14] = 2 × 100 mg b.i.d., week 12, 12 weeks results
[15] = 2 × 100 mg b.i.d., week 12, 24 weeks results
[16] = 2 × 100 mg b.i.d., week 16, 24 weeks results
[17] = 2 × 100 mg b.i.d., week 20, 24 weeks results
[18] = 2 × 100 mg b.i.d., week 24, 24 weeks results
[19] = 2 × 100 mg b.i.d., at week 1, 12 weeks results
[20] = 2 × 100 mg b.i.d., at week 1, 24 weeks results

## O=C(Nc1nc2cccc(-c3ccc(CN4CCS(=O)(=O)CC4)cc3)n2n1)C1CC1 [Compound 1, cyclopropanecarboxylic acid {5-[4-(1,1-dioxo-thiomorpholin-4-ylmethyl)-phenyl]-[1,2,4]triazolo[1,5-a]pyridin-2-yl}-amide]
2 × 50 mg b.i.d., week 8, 24 weeks results
  ACR70 (NRI): 14.1%
[1]
  ACR20 (LOCF): 58.8%
  ACR20 (NRI): 58.8%
  ACR50 (LOCF): 34.1%
  ACR50 (NRI): 34.1%
  ACR70 (LOCF): 18.8%
  ACR70 (NRI): 18.8%
[2]
  ACR20 (LOCF): 60.0%
  ACR20 (NRI): 58.8%
  ACR50 (LOCF): 34.1%
  ACR50 (NRI): 34.1%
  ACR70 (LOCF): 18.8%
  ACR70 (NRI): 18.8%
[3]
  ACR20 (LOCF): 67.1%
  ACR20 (NRI): 64.7%
  ACR50 (LOCF): 32.9%
  ACR70 (LOCF): 21.2%
[4]
  ACR20 (LOCF): 68.2%
  ACR20 (NRI): 65.9%
  ACR50 (LOCF): 41.2%
  ACR70 (LOCF): 22.4%
[5]
  ACR20 (LOCF): 67.1%
  ACR20 (NRI): 60.0%
  ACR50 (LOCF): 38.8%
  ACR70 (LOCF): 24.7%
[6]
  ACR20 (LOCF): 22.4%
  ACR20 (NRI): 22.4%
  ACR50 (LOCF): 7.1%
  ACR50 (NRI): 7.1%
  ACR70 (LOCF): 2.4%
  ACR70 (NRI): 2.4%
[7]
  ACR20 (LOCF): 22.4%
  ACR20 (NRI): 22.4%
  ACR50 (LOCF): 7.1%
  ACR50 (NRI): 7.1%
  ACR70 (LOCF): 2.4%
  ACR70 (NRI): 2.4%
[8]
  ACR20 (LOCF): 53.6%
  ACR20 (NRI): 54.8%
  ACR50 (LOCF): 22.6%
  ACR50 (NRI): 21.4%
  ACR70 (LOCF): 4.8%
  ACR70 (NRI): 3.6%
[9]
  ACR20 (LOCF): 56.0%
  ACR20 (NRI): 54.8%
  ACR50 (LOCF): 22.6%
  ACR50 (NRI): 21.4%
  ACR70 (LOCF): 4.8%
  ACR70 (NRI): 3.6%
[10]
  ACR20 (LOCF): 67.9%
  ACR20 (NRI): 69.0%
  ACR50 (LOCF): 34.5%
  ACR50 (NRI): 35.7%
  ACR70 (LOCF): 9.5%
  ACR70 (NRI): 10.7%
[11]
  ACR20 (LOCF): 67.9%
  ACR20 (NRI): 67.9%
  ACR50 (LOCF): 34.5%
  ACR50 (NRI): 34.5%
  ACR70 (LOCF): 10.7%
  ACR70 (NRI): 10.7%
[12]
  ACR20 (LOCF): 75.0%
  ACR20 (NRI): 75.0%
  ACR50 (LOCF): 45.2%
  ACR50 (NRI): 45.2%
  ACR70 (LOCF): 26.2%
  ACR70 (NRI): 27.4%
[13]
  ACR20 (LOCF): 75.0%
  ACR20 (NRI): 75.0%
  ACR50 (LOCF): 45.2%
  ACR50 (NRI): 45.2%
  ACR70 (LOCF): 27.4%
  ACR70 (NRI): 27.4%
[14]
  ACR20 (LOCF): 79.8%
  ACR20 (NRI): 79.8%
  ACR50 (LOCF): 56.0%
  ACR50 (NRI): 54.8%
  ACR70 (LOCF): 29.8%
  ACR70 (NRI): 31.0%
[15]
  ACR20 (LOCF): 81.0%
  ACR20 (NRI): 79.8)
  ACR50 (LOCF): 57.1%
  ACR50 (NRI): 54.8%
  ACR70 (LOCF): 31.0%
  ACR70 (NRI): 31.0%
[16]
  ACR20 (LOCF): 84.5%
  ACR20 (NRI): 82.1%
  ACR50 (LOCF): 64.3%
  ACR70 (LOCF): 36.9%
[17]
  ACR20 (LOCF): 88.1%
  ACR20 (NRI): 84.5%
  ACR50 (LOCF): 61.9%
  ACR70 (LOCF): 36.9%
[18]
  ACR20 (LOCF): 86.9%
  ACR20 (NRI): 79.8%
  ACR50 (LOCF): 61.9%
  ACR70 (LOCF): 42.9%
[19]
  ACR20 (LOCF): 33.3%
  ACR20 (NRI): 34.5%
  ACR50 (LOCF): 7.1%
  ACR50 (NRI): 7.1%
  ACR70 (LOCF): 4.8%
  ACR70 (NRI): 4.8%
[20]
  ACR20 (LOCF): 34.5%
  ACR20 (NRI): 34.5%
  ACR50 (LOCF): 7.1%
  ACR50 (NRI): 7.1%
  ACR70 (LOCF): 4.8%
  ACR70 (NRI): 4.8%

Source: patent US20180200257A1, “METHODS FOR THE TREATMENT OF INFLAMMATORY DISORDERS” (Galapagos NV, priority 2015, published 2018)
